For one data set, the system named is BEAS-2B cells. Briefly: MTT cell viability of BEAS-2B cells, dark and 660 nm light irradiation. Format: cell-based. The procedure:
(§1) A549 and BEAS-2B cells were obtained from ATCC with reference numbers CCL-185 and CRL-9609, respectively. A549 cells were cultured in DMEM (with 2 mM L-glutamine, Gibco, United States), while RPMI 1640 (with 2 mM L-glutamine, Gibco, United States) was used for BEAS-2B cells. Both media were supplemented with 10% fetal bovine serum (FBS) (Gibco, United States), and cells were cultured in an incubator with a humidified atmosphere of 5% CO2 at 37 °C.[24]
(§2) For the evaluation of cytotoxic activity, an MTT assay was employed. Cells were seeded 1 day prior to treatment in 96-well plates at a concentration of 20,000 cells/mL. Followed by overnight incubation, the cells were exposed to LuPcPox(OAc), AB3TPP-Pc, AB3TPP-Por-C4, PP-Por-C6, H2TPP, and ZnPc molecules. All molecules were dispersed in DMSO. The working concentrations of the molecules contain <0.1% (v/v) of DMSO. Time-point assays were performed after 24 and 48 h. The final concentration of MTT was 0.5 mg/mL, and after 3 h incubation, absorbances were measured at 545 nm. The absorbance of the blank group which was the samples containing media with 10% FBS was subtracted from the measurements and cell viability was determined by the following formula.[52] The control group was composed of nontreated cells. Cell viability (%) = (absorbance value of sample/absorbance value of control) × 100.
(§3) The cells seeded at a concentration of 20,000 cells/mL in the 96-well plates were irradiated at 660 nm using an LED light array producing a flux of 0.036 J cm^–2 s^–1 (0.036 W/cm^2). In order to determine the cytotoxic effects of Pcs under light, one group of each cell line was exposed to an LED array for 30 min at room temperature and then returned to the incubator, while another group was incubated in the dark.[24] The delivered red photons on the cells were measured by a calibrated PAR meter (Apogee SQ-520). The temperature of the chamber under continuous light flux was monitored synchronously for ensuring the stability of the conditions.[53]
(§4) The cells were seeded at a concentration of 20,000 cells/mL on 96-well plates and incubated for 24 h. The Pcs were added in 0.1, 2.5, 5, 10, 25, and 50 μM concentrations for evaluating the toxicity with/without light except for LuPcPox(OAc). The LuPcPox(OAc) was added into the wells as 0.01, 0.03, 0.09, 0.25, 0.50, and 1 μM concentration because a concentration over 1.0 μM kills the cells immediately. The Pcs in the cell media were discarded, and a fresh medium was added to the cells to remove noninternalized molecules. The viability of the cells was recorded for 24 and 48 h after the addition of Pcs. The cells were irradiated for 30 min.
(§5) IC50 values of the Pcs were determined by fitting the cell’s viability curve acquired from the spectroscopic data. All the values were obtained by using Origin Software (Figure 7).

Data set [1] in a line: Fluorescence quantum yield, comparative method. Format: physicochemical. The following applies: THF. The method, then: Excitation spectra in the Q-band region have been obtained by monitoring the fluorescence emission spectra at the indicated wavelength of porphyrins and phthalocyanine compounds. The fluorescence quantum yields (ΦF) of all structures were determined in THF, using a comparative method. The values were 0.009, 0.14, 0.13, and 0.13, for LuPcPox(OAc), AB3TPP-Pc, AB3TPP-Por-C4, and AB3TPP-Por-C6, respectively. The lowest ΦF value 0.009 belongs to LuPcPox(OAc) and is close to the value (0.004) obtained in DMSO in our previous study.[24] This could be the result of the higher atomic number of lutetium in the cavity of phthalocyanine which may facilitate intersystem crossing to its excited triplet state after excitation. However, the difference and purpose of this study from our previous work are to examine whether there will be a change in the fluorescence property with the addition of the mitochondria targeting the TPP group to the structure. We achieved this goal. The ΦF value of AB3TPP-Pc was 0.14, although it was lower than the reference molecule (ZnPc ΦF= 0.25),[43] and the presence of the TPP group on the structure increased the fluorescence efficiency approximately 15 times that of LuPcPox(OAc) ΦF = 0.009. […] The normalized absorption, excitation, and emission spectra for all compounds are shown in Figure 3, and ΦF values are given in Table 2.

A short description of data set [2]: UV-vis absorption, extinction coefficient at 660 nm. The following applies: 2 × 10^–6 M in THF. Format: physicochemical. The method, then:
In our study, the Lambert–Beer law indicating a linear relationship between absorbance and concentrations was obeyed for all porphyrin and phthalocyanine compounds in dimethylsulfoxide (DMSO) in the whole 2–8 μM concentration measurement range (Figure 2). The UV–vis spectra of macrocyclic compounds were recorded in both DMSO and tetrahydrofuran (THF), solvents in which all compounds are soluble (Figures S13–S19). […] This diverse absorption behavior of complexes comes from their different subunits which are isoindoles and pyrroles in the skeleton of macrocycles for phthalocyanine and porphyrin, respectively.[40],[41]Table 1 summarizes the wavelengths and associated extinction coefficients in Q and Soret (B) bands in DMSO.

Data set [3] in a line: Singlet-oxygen quantum yield, direct method (phosphorescence). Format: physicochemical. The following applies: for ΦΔ singlet-oxygen quantum yield: THF. The procedure:
For PDT, tumor cells are killed by ROS that is produced by a photosensitizer; thus, the production of ^1O2 by the photosensitizer plays a vitally important role in PDT.[46] To evaluate the photosensitizing properties of novel macrocyclic structures, singlet-oxygen quantum yields have been evaluated by a direct method in THF. Singlet-oxygen phosphorescence spectra for all compounds excited with a xenon-arc source at their respective absorption maxima were recorded by a near-IR-sensitive detector. ZnPc and H2TPP were used as the standard for phthalocyanine and porphyrin derivatives that have singlet oxygen yields of 0.53[47] and 0.58[33],[34] in THF, respectively. Singlet-oxygen phosphorescence spectra of Pc and Por. derivatives in THF at equal absorbance (0.23) were obtained to directly determine ΦΔ (Figures S20 and S21). […] Apparently, AB3TPP-Pc is almost three times as efficient as LuPcPox(OAc) in producing singlet oxygen, matching well with our proposal that the TPP-conjugated phthalocyanine could serve as an ideal candidate for mitochondrial-targeted PDT reagent.

The subject of the next data set is A549 cells. Briefly: MTT cell viability of A549 cells, dark and 660 nm light irradiation. Format: cell-based. The following applies: for IC50: 24 h. The method, then:
as §1, §2, §3, §4, §5

Data set [4] is described as follows: Fluorescence lifetime, TCSPC. Format: physicochemical. The following applies: THF, mono-exponential decay. The procedure:
Luminescence lifetime measurements were performed on a fluorescence spectroscopy Fluorolog-3 (HORIBA Jobin Yvon) system in the single-photon counting (TCSPC) mode. A NanoLED light source (HORIBA Jobin Yvon) of λmax 390 nm was used for 395 nm excitation. All measurements were carried out in 0.2 ab. solutions in THF at room temperature. […] AB3TPP-Pc and LuPcPox(OAc) show a biexponential decay. The short-lived species are due to component features τf of 2.54 ns (responsible for 35.78%) and τf of 2.14 ns (responsible for 32.47%) photons emitted by AB3TPP-Pc and LuPcPox(OAc), respectively. The longer lifetime has a τf of 4.77 ns (assume 64.22%) and 3.11 ns (assume 67.53%) of emission for AB3TPP-Pc and LuPcPox(OAc), respectively.

The conditions of data set [5]: reference substance; cited from earlier work.
The conditions of data set [6]: THF, standard; cited from earlier work.
[7] abbreviates: Homo sapiens, A549, light (660 nm, 30 min).
Setting [8] is: Homo sapiens, dark, 24 h, read-out: IC50.
Where [9] appears, read: Homo sapiens, light (660 nm, 30 min), 24 h, read-out: IC50.

Where two headings read alike, the source gives them in different places.

The compound `COCCOCCOCCSc1cc2c(cc1SCCOCCOCCOC)-c1nc-2nc2[nH]c(nc3nc(nc4[nH]c(n1)c1cc(SCCOCCOCCOC)c(SCCOCCOCCOC)cc41)-c1cc(SCCOCCOCCOC)c(SCCOCCOCCOC)cc1-3)c1cc(SCCCCCCOCCCCCC[P+](c3ccccc3)(c3ccccc3)c3ccccc3)ccc21` [AB3TPP-Pc] showed a cytotoxic concentration in the data set with BEAS-2B cells (dark, 24 and 48 h) of under 6 µM. Also, the IC50 in the data set with BEAS-2B cells (light, 48 h, read-out: IC50 (cytotoxic concentration)) was found to be 2.4 µM. Besides, in data set [1], the “increase of fluorescence efficiency over LuPcPox(OAc)” value is “approximately 15 times” and the “ΦF fluorescence quantum yield” value was 0.14. In addition, the “log ε (660 nm)” value in data set [2] worked out at 4.18. Further, in data set [3], the “singlet oxygen-producing capacity compared to LuPcPox(OAc)” value is recorded as about 3 times; the “singlet oxygen-producing capacity, more efficient with respect to ZnPc” value is given as 50%; the “ΦΔ singlet-oxygen quantum yield” value is on record as 0.75.
In the case of `COc1ccc(-c2c3nc(c(-c4ccc(OC)cc4)c4ccc([nH]4)c(-c4ccc(OCCCC[P+](c5ccccc5)(c5ccccc5)c5ccccc5)cc4)c4nc(c(-c5ccc(OC)cc5)c5ccc2[nH]5)C=C4)C=C3)cc1` [AB3TPP-Por-C4], in the data set on A549 cells (A549), the “increase of toxicity under light compared to the dark (from IC50)” value is on record as 2 fold. Further, the “cytotoxicity (in words)” value in the data set with A549 cells (A549, dark, up to 48 h) is “noncytotoxic”. Besides, the IC50 in the data set with A549 cells (Homo sapiens, A549, dark) is over 50 µM; in the data set on A549 cells (setting [7]) it was 10.3 µM; in the data set on BEAS-2B cells (setting [8]) it was 11.5 µM; with BEAS-2B cells (setting [9]), under 0.1 µM. For the same compound, the “ΦF fluorescence quantum yield” value in data set [1] is on record as 0.13. In addition, the τF fluorescence lifetime in data set [4] amounted to 8.87 ns. Further, in data set [2], the “log ε (660 nm)” value is listed as 3.43. Also, the “ΦΔ singlet-oxygen quantum yield” value in data set [3] worked out at 0.57.
`COc1ccc(-c2c3nc(c(-c4ccc(OC)cc4)c4ccc([nH]4)c(-c4ccc(OCCCCCC[P+](c5ccccc5)(c5ccccc5)c5ccccc5)cc4)c4nc(c(-c5ccc(OC)cc5)c5ccc2[nH]5)C=C4)C=C3)cc1` [AB3TPP-Por-C6]: the “reduction of cell viability compared to AB3Por-C4 (phototoxicity)” value with A549 cells (A549) is 2 fold. In the data set with A549 cells (A549), the “reduction of cell viability compared to H2TPP (phototoxicity)” value is reported as 5 fold. Also, in the data set with A549 cells (A549, after light irradiation, 24 and 48 h), the “critical concentration (decrease in viability)” value is 2.5 µM. The IC50 was 24.9 µM with A549 cells (Homo sapiens, A549, dark); 3.6 µM with A549 cells (setting [7]); 10.3 µM in the data set with BEAS-2B cells (setting [8]); under 0.1 µM in the data set on BEAS-2B cells (setting [9]). Moreover, in data set [1], the “ΦF fluorescence quantum yield” value is listed as 0.13. In data set [4], this compound yielded a τF fluorescence lifetime of 8.91 ns. In data set [2], the “log ε (660 nm)” value worked out at 3.56. Moreover, in data set [3], the “ΦΔ singlet-oxygen quantum yield” value stood at 0.58.
`[Zn+2].c1ccc2c(c1)-c1nc-2nc2[n-]c(nc3nc([n-]c4nc(n1)-c1ccccc1-4)-c1ccccc1-3)c1ccccc21` [ZnPc, zinc (II)phthalocyanine, reference compound] returned a τF fluorescence lifetime in data set [4] of 2.72 ns.
With “Tetraphenylporphyrin [H2TPP, reference compound]”, the IC50 with A549 cells (A549, dark) amounted to 19.7 µM; in the data set with A549 cells (A549, light (660 nm, 30 min)), 19.7 µM; with BEAS-2B cells (dark, 24 h, read-out: IC50) it was 12.1 µM; in the data set on BEAS-2B cells (light (660 nm, 30 min), 24 h, read-out: IC50) it was 6.8 µM. Besides, the “ΦF fluorescence quantum yield” value in data set [5] and in data set [1] was 0.13 in each case. Moreover, the “ΦΔ singlet-oxygen quantum yield” value in data set [6] and in data set [3] was 0.58 in each case. Also, the τF fluorescence lifetime in data set [4] was found to be 10.3 ns.

Values taken from PMC9631755, “Development of AB3-Type Novel Phthalocyanine and Porphyrin Photosensitizers Conjugated with Triphenylphosphonium for Higher Photodynamic Efficacy” (ACS Omega, 2022).
